According to patent US6613875B1, “Cyclic peptide tube” (The Scripps Research Institute, priority 1993, dated 2003):
Square brackets hold non-standard residues; d marks the D form.

Test: Single channel conductance, micro patch clamp on planar lipid bilayers
Assay type: biochemical
Settings: for single channel conductance: peptide in the range of 10^−7 M in the subphase
Source text: FIG. 26 illustrates a 140 second continuous K^+ single channel conductance recording at 50 mV of the channel forming compounds indicated in FIG. 24. Open-closed transitions indicate gating mechanisms which may reflect structural flexibility or rapid assembly-disassembly of the tubular membrane channel structures. Short and long channel life times in the open state could be distinguished with values of t(short)=0.71±0.03 ms and t(long)=37.14±8.99 ms (total number of events 510) with an overall open probability P(O) of 0.29. Peptide concentration at the subphase was 1.0×10^−7 M. As is expected for any such self-assembling channel forming species, channel opening lifetimes show significant dependence on the peptide concentration. Raising the added peptide concentration in the subphase to 2.0×10^−5 M, produces open channel lifetimes of […] >30 seconds.
Formation of transmembrane channels was also inferred from its highly efficient proton transport activity. Vesicles were prepared having pH 6.5 inside and pH 5.5 in the outside bulk solution. The collapse of the imposed pH gradient in these vesicles, upon formation of the putative transmembrane channel structure, was studied by monitoring the fluorescence intensity of an entrapped pH-sensitive dye. (V.E. Carmichael et al, in J.Am. Chem. Soc. (1989), vol. 111, pages 767-769). […] Unilamellar vesicles were prepared by the reverse-phase evaporation using DPPC, OPPC, cholestrol in the ratio of 1:1:2 in a solution containing 5(6)-carboxyfluorescein (20 mM in phosphate/saline buffer: 137 mM NaCl, 2.6 mM KCl, 6.4 mM Na2HPO4, 1.4 mM KH2PO4, pH 6.5) according to the method of F. Szoka et al. in Proc. Natl. Acad. Sci. USA (1978), vol. 75, pages 4194-4198. Liposomes were then sized by multiple extrusions through Nucleopore® polycarbonate membranes (10 times, 50 psi, using 0.8 and 2×0.4 micron filter stacks) and the untrapped 5(6)-carboxyfluorescein was removed by size exclusion chromatography (Sephadex G-25 column 1×30 cm) using the same phosphate/saline buffer according to the method of F. Olson et al. in Biochim. Biophys. Acta (1979), vol. 557, pages 9-23. Vesicles formed in this way are approximately 150 nanometer in diameter as determined by electron microscopy. (R. R. C. New, Ed. Liposomes, Oxford university Press, 1990). In each experiment, 70 ml of the stock vesicle solution (3.5×10^−3 M in phospholipids) was added to pH 5.5 buffer (1.3 ml, 137 mM NaCl, 2.6 mM KCl, 6.4 Na2HPO4, 1.4 KH2PO4) and placed in a 1 cm quartz cuvett inside a stirring thermojacketed sample holder of the florescence instrument and equilibrated at 25° C. for 15 minutes with gentle stirring. To the cuvett, through an injector port, […] of the channel forming compounds in DMSO was added with continuous fluorescence monitoring at 520 nm (excitation at 470 nm). The observed data were then normalized for comparison into the fractional change in fluorescence ((I0−It)/(I0−I∞)) (V. E. Carmichael et al, in J.Am. Chem. Soc. (1989), vol. 111, pages 767-769)). […] The lipid bilayers used were formed on the tip of patch pipettes using a mixture of synthetic POPE: POPS (4:1) (1-palmitoyl-2-oleoyl-Sn-glycero-3-phosphatidylethano lamine and -serine). Five to 10 ml of the peptide solution (1.0×10^−7 or 2.0×10^−6 M in 25% DMSO in buffer solution containing 500 mM NaCl or KCl, 5 mM CaCl2, 10 mM HEPES, pH 7.5) was added to 150 ml subphase volume resulting in spontaneous partitioning of the peptide into the membrane. Ion channels formed spontaneously after peptide was added to the subphase of lipid bilayers. […] Data acquisition and analysis were performed on a Gateway 2000/486 computer using pClamp software package and TL-1 labmaster interface. Acquisition rate was 0.1 ms and data were filtered at 2 kHz.
The ultimate test in establishing and quantitating the transport efficiency of a membrane channel structure is to measure its single channel conductance using micro patch clamp techniques. […]

[1] = K^+ recording at 50 mV, peptide 1.0×10^−7 M in subphase, 510 events

Q: Which single channel conductance (500 mM KCl) does the source give for “cyclo[-(Trp-D-Leu)3-Gln-D-Leu-] (cyclo(W[dL]W[dL]W[dL]Q[dL]); SMILES CC(C)C[C@H]1NC(=O)[C@H](CCC(N)=O)NC(=O)[C@@H](CC(C)C)NC(=O)[C@H](Cc2c[nH]c3ccccc23)NC(=O)[C@@H](CC(C)C)NC(=O)[C@H](Cc2c[nH]c3ccccc23)NC(=O)[C@@H](CC(C)C)NC(=O)[C@H](Cc2c[nH]c3ccccc23)NC1=O) [eight residue ion channel forming cyclic peptide, approximately 7.5 Å pore]” here?
A: The single channel conductance was about 65 pS.

Q: And the single channel conductance (500 mM NaCl)?
A: Its single channel conductance is “approximately 55 pS”.

Q: And the “actual rate of channel-mediated ion transport” value (K^+)?
A: Its value is 2.2×10^7 ion.sec^−1.

Q: What about the “overall open probability P(O)” value (K^+ recording at 50 mV, peptide 1.0×10^−7 M in subphase) of the same substance?
A: Its value is 0.29.

Q: What about the “channel life time in the open state, t(long)” value [1] of the same substance?
A: The value was 37.14 ± 8.99 ms.

Q: What about the “channel life time in the open state, t(short)” value [1] of the same substance?
A: The value was 0.71 ± 0.03 ms.

Q: And the “actual rate of channel-mediated ion transport” value (Na^+)?
A: The value was 1.8×10^7 ion.sec^−1.

Q: What about the “rate of ion transport relative to gramicidin A under similar conditions” value (gramicidin A value from literature) of the same substance?
A: Its value is “three”.

Q: What about the “dependence of single channel conductance on applied voltage” value (measured range of 10-100 mV) of the same substance?
A: The value was “independent of the applied voltage”.

Q: And the open channel lifetimes (peptide concentration in the subphase raised to 2.0×10^−5 M)?
A: The open channel lifetimes was over 30 s.

Q: And the “ion channel activity observed (membranes with activity)” value (symmetrical solutions of 500 mM NaCl or KCl, 5 mM CaCl2, 10 mM HEPES, pH 7.5)?
A: The value was 14 out of 22.

Q: With “cyclo[-Gln-(D-Leu-Trp)4-D-Leu-] (cyclo(Q[dL]W[dL]W[dL]W[dL]W[dL]); SMILES CC(C)C[C@H]1NC(=O)[C@H](CCC(N)=O)NC(=O)[C@@H](CC(C)C)NC(=O)[C@H](Cc2c[nH]c3ccccc23)NC(=O)[C@@H](CC(C)C)NC(=O)[C@H](Cc2c[nH]c3ccccc23)NC(=O)[C@@H](CC(C)C)NC(=O)[C@H](Cc2c[nH]c3ccccc23)NC(=O)[C@@H](CC(C)C)NC(=O)[C@H](Cc2c[nH]c3ccccc23)NC1=O) [10-residue cyclic peptide forming 10 Å pores that transport glucose]” as the substance, how does the “ion transport rate / efficiency” value (single ion channel recordings) read?
A: The value was > 10^7 ions.sec^−1.
